According to patent publication US10138245B2, “Fused triazole derivatives as phosphodiesterase 10A inhibitors” (Celon Pharma S.A., priority 2014, dated 2018):

What was measured:
[1] = Metabolic stability in rat liver microsomal fraction; assay type: in vitro ADME; conditions: liver microsomes, 37° C., phase I cofactors; for microsomal CLint: read-out: Cl(int)
Protocol: Tested compounds were incubated in triplicates with rat liver microsomal fraction at 37° C. in the presence of metabolic phase I cofactors (NADP, G6P, G6P dehydrogenase, MgCl2) necessary for metabolic transformations. Concentration of a non-metabolized tested compound in the reaction mixture was measured using LC/MS method at 4 time points: after 0, 20, 40 and 60 min of incubation. The AUC of compounds at those time points were compared with AUC at point 0 to obtain % loss of parental compound. The obtained data were used for calculation of internal clearance (Cl(int)) and half-life (T½). The metabolic activity of microsomes was assessed by measuring the stability of two standards with low and high metabolic stability, propranolol and donepezil, respectively.

[2] = target: Recombinant human phosphodiesterase 10A (PDE10A) (Homo sapiens (Human), UniProt Q9Y233); assay: Assay of phosphodiesterase 10 inhibition in vitro (PDE-Glo luminescent method); assay type: biochemical; conditions: averaged IC50 values, read-out: hPDE10A1 IC50
Protocol: 1. Assay of Phosphodiesterase 10 Inhibition In Vitro
Recombinant human phosphodiesterase 10A (PDE10A) purified to homogeneity from Sf9 cells overexpressing PDE10A gene (GenBank/EMBL accession number: NM_001130690) was used for inhibition tests.
Inhibitory activity of the compounds towards PDE10A was tested using PDE-Glo (Promega Corporation, Madison, USA) luminescent method on 96-well plates. Test was performed for 8 concentrations of the compounds. Test compounds were dissolved in 100% DMSO and resulted solutions were diluted 5× in concentrated PDE-Glo Reaction Buffer. Eight concentrations of each tested compound were obtained by subsequent dilution. 5 μl of obtained solutions were added into the wells of 96-well plate. Next, 7.5 μl of a solution containing […] enzyme diluted in 1× concentrated PDE-Glo Reaction Buffer were added into the well to obtain the final amount of 2-10 ng (depending on the activity of the enzyme batch used in the study). In order to facilitate interaction between compounds and the enzyme, plates were incubated for 1 minute at room temperature and then 9 minutes at 4° C. Reaction was initiated by addition of 12.5 μl of 2 μM cAMP solution into the well and subsequently plate was incubated at 30° C.
After 40 minutes reaction was stopped by addition of 12.5 μl of PDE-Glo Termination Buffer with high concentration of a known PDE10 inhibitor. Plate content was stirred with orbital shaker at 500 RPMs for 10 minutes and then in the next step 12.5 μl of freshly prepared PDE-Glo Detection Solution were added into the well.
Plate was incubated for 20 minutes at room temperature before 50 μl of Kinase Glo reagent (Promega Corporation, Madison, USA) was applied into the wells and incubation at room temperature was continued for the next 10 minutes. After incubation, luminescence intensity in wells was measured with the Victor Light (Perkin Elmer Inc.) luminometer.
Percent of PDE10A inhibition by tested compounds was determined based on luminescence intensity measurements in wells containing test compounds and in control wells. Results were then fitted using a four-parameter logistic fit in GraphPad Prism 5.03 software (GraphPad Software Inc.). Negative control wells contained all above mentioned reagents except test compounds and positive control wells contained all above mentioned reagents except test compounds and the PDE10A enzyme. Each chemical compound was assayed in at least two independent runs (2×96-well plate in duplicate) with at least 3 wells of each of the controls.

Chain of Recombinant human phosphodiesterase 10A (PDE10A) (Q9Y233 267-1055): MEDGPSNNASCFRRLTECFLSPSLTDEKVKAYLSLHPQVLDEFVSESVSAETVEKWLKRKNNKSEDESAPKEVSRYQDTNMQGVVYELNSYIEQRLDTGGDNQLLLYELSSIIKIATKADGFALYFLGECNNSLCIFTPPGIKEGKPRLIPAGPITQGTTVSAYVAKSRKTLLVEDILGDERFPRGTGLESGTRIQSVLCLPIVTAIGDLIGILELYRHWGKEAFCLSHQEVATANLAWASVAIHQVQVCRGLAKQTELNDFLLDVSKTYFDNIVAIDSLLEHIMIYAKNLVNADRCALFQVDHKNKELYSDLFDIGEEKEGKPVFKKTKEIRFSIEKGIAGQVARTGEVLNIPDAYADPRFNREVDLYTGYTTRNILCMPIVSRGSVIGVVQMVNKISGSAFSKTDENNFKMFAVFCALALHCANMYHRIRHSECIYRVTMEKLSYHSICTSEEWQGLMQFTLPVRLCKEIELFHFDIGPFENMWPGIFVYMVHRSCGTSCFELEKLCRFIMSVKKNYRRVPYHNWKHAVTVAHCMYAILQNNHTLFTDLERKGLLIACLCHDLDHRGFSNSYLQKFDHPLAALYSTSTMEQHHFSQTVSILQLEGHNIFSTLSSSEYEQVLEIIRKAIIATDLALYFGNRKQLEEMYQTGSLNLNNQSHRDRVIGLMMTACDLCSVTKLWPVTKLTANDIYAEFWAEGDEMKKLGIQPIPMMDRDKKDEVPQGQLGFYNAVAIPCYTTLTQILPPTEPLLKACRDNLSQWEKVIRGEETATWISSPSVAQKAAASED

Row | half-life [1] [h] | microsomal CLint [1] [µL/min/mg] | IC50 [2] [nM] | Structure (SMILES)
1 | – | – | 63 | Cc1ncc(C)n2nc(-c3ccc4[nH]c(-c5ccccn5)nc4c3)nc12 [Example 40, 5,8-Dimethyl-2-[2-(pyridin-2-yl)-1H-benzimidazol-5-yl][1,2,4]triazolo[1,5-a]pyrazine]
2 | – | – | 19.5 | COc1ccccc1-c1nc2cc(-c3nc4c(C)ncc(C)n4n3)ccc2[nH]1 [Example 41, 2-[2-(2-Methoxyphenyl)-1H-benzimidazol-5-yl]-5,8-dimethyl[1,2,4]triazolo[1,5-a]-pyrazine]
3 | – | – | 794 | Cc1cc(C)n2nc(-c3ccc4c(c3)nc(-c3ccccc3)n4C)nc2n1 [Example 48A, 5,7-Dimethyl-2-(1-methyl-2-phenyl-1H-benzo[d]imidazol-5-yl)-[1,2,4]-triazolo[1,5-a]pyrimidine]
4 | – | – | 413 | Cc1cc(C)n2nc(-c3ccc4nc(-c5ccccc5)n(C)c4c3)nc2n1 [Example 48B, 5,7-Dimethyl-2-(1-methyl-2-phenyl-1H-benzo[d]imidazol-6-yl)-[1,2,4]-triazolo[1,5-a]pyrimidine]
5 | – | – | 96 | Cc1cc(C)n2nc(-c3ccn4cc(-c5ccccc5)nc4n3)nc2n1 [Example 56, 5,7-Dimethyl-2-(2-phenylimidazo[1,2-a]pyrimidin-7-yl)[1,2,4]triazolo-[1,5-a]pyrimidine]

Continued, compound first:

Row | Structure (SMILES) | half-life [1] [h] | microsomal CLint [1] [µL/min/mg] | IC50 [2] [nM]
6 | Cc1ncc(C)n2nc(-c3ccn4cc(-c5ccccc5)nc4c3)nc12 [Ex. 1 of WO2013003298, reference compound] | 0.559 | 68.9 | –
7 | Cc1cc(C)n2nc(-c3ccc4[nH]c(-c5ccccc5)nc4c3)nc2n1 [Example 1, 5,7-Dimethyl-2-(2-phenyl-1H-benzo[d]imidazol-5-yl)-[1,2,4]triazolo-[1,5-a]pyrimidine] | – | – | 47
8 | Cc1ncc(C)n2nc(-c3ccc4[nH]c(-c5ccccc5F)nc4c3)nc12 [Example 2, 2-[2-(2-Fluorophenyl)-1H-benzo[d]imidazol-5-yl]-5,8-dimethyl-[1,2,4]-triazolo[1,5-a]pyrazine] | – | – | 37
9 | Cc1cc(C)n2nc(-c3ccc4[nH]c(-c5ccccn5)nc4c3)nc2n1 [Example 3, 5,7-Dimethyl-2-[2-(pyridin-2-yl)-1H-benzo[d]imidazol-5-yl]-[1,2,4]triazolo[1,5-a]pyrimidine] | – | – | 279
10 | Cc1ncc(C)n2nc(-c3ccc4[nH]c(-c5ccccc5)nc4c3)nc12 [Example 4, 5,8-Dimethyl-2-(2-phenyl-1H-benzimidazol-5-yl)[1,2,4]triazolo[1,5-a]pyrazine] | 1.05 | 36.8 | 27
11 | Cc1cc(C)n2nc(-c3ccc4[nH]c(-c5ccncc5)nc4c3)nc2n1 [Example 5, 5,7-Dimethyl-2-[2-(pyridin-4-yl)-1H-benzimidazol-5-yl][1,2,4]triazolo[1,5-a]pyrimidine] | – | – | 953
12 | Cc1ncc(C)n2nc(-c3ccc4[nH]c(-c5cccc(F)c5)nc4c3)nc12 [Example 6, 2-[2-(3-Fluorophenyl)-1H-benzimidazol-5-yl]-5,8-dimethyl[1,2,4]triazolo[1,5-a]pyrazine] | – | – | 172
13 | Cc1ncc(C)n2nc(-c3ccc4[nH]c(-c5ccc(F)cc5)nc4c3)nc12 [Example 7, 2-[2-(4-Fluorophenyl)-1H-benzimidazol-5-yl]-5,8-dimethyl[1,2,4]triazolo[1,5-a]pyrazine] | – | – | 54
14 | Cc1ncc(C)n2nc(-c3ccc4[nH]c(-c5nccs5)nc4c3)nc12 [Example 8, 5,8-Dimethyl-2-[2-(1,3-thiazol-2-yl)-1H-benzimidazol-5-yl][1,2,4]triazolo[1,5-a]pyrazine] | – | – | 84
15 | Cc1ncc(C)n2nc(-c3ccn4cc(-c5ccccc5)nc4n3)nc12 [Example 57, 5,8-Dimethyl-2-(2-phenylimidazo[1,2-a]pyrimidin-7-yl)[1,2,4]triazolo[1,5-a]pyrazine] | 1.1 | 34.9 | 35.7
